# Measured values published in patent publication US20230099293A1, “OGA INHIBITOR COMPOUNDS” (priority 2019, published 2023).
# pEC50, pIC50: −log10 of the molar value.
# Key:
# [1] = molecular target: T1, recombinant human Meningioma Expressed Antigen 5 (MGEA5), also referred to as O-GlcNAcase (OGA) (Homo sapiens, UniProt O60502); test: OGA biochemical assay (inhibition of FM-GlcNAc hydrolysis, fluorescence); details: for Enzymatic hOGA; pIC50: Table 5; for Enzymatic hOGA; pIC50 / pIC50: full length OGA 2 nM, FM-GlcNAc 100 uM, 6 h at room temperature; for Emax: read-out: Enzymatic Emax (%); for pIC50: Enzymatic hOGA, pIC50, Table 5
# T1 construct: Full length OGA enzyme was purchased at OriGene (cat #TP322411); purchased OriGene TP322411
# T1 sequence (O60502 1-916): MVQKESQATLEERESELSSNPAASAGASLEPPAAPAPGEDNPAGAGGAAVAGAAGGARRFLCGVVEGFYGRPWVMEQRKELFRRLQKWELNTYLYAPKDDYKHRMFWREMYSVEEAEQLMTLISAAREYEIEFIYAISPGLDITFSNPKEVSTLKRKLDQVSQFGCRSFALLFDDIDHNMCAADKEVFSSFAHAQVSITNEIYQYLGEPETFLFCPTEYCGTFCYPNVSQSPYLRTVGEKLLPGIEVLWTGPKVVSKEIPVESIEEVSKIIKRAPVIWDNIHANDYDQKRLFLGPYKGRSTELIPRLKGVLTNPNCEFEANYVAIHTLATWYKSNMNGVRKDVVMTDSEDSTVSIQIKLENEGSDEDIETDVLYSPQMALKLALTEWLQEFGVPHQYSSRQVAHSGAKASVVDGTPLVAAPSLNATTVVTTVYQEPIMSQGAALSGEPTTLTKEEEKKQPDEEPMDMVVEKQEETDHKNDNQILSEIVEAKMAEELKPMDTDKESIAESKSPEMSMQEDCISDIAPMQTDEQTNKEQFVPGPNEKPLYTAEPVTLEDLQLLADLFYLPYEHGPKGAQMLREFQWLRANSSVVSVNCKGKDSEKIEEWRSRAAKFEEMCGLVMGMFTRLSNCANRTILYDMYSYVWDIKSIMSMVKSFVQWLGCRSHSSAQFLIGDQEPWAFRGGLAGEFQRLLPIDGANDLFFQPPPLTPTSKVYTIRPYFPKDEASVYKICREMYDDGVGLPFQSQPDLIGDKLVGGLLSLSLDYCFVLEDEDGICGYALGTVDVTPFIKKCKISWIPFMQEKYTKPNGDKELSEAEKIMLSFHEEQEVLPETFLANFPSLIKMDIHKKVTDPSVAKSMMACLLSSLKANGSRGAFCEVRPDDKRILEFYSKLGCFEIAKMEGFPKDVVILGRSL
# Method: The hydrolysis FM-GlcNAc (Marker Gene technologies, cat #M1485) results in the formation of β-D-N-glucosamineacetate and fluorescein. The fluorescence of the latter can be measured at excitation wavelength 485 nm and emission wavelength 538 nm. An increase in enzyme activity results in an increase in fluorescence signal. Full length OGA enzyme was purchased at OriGene (cat #TP322411). The enzyme was stored in 25 mM Tris.HCl, pH 7.3, 100 mM glycine, 10% glycerol at −20° C. […] The assay was performed in 200 mM Citrate/phosphate buffer supplemented with 0.005% Tween-20. 35.6 g Na2HIPO42H2O (Sigma, #C0759) were dissolved in 1 L water to obtain a 200 mM solution. […] The buffer to stop the reaction consists of a 500 mM Carbonate buffer, pH 11.0. […] OGA was used at a 2 nM concentration and FM-GlcNAc at a 100 uM final concentration. Dilutions were prepared in assay buffer.
# Plates were pre-incubated for 60 min at room temperature and then 2 μl FM-GlcNAc substrate mix added. […] Plates were briefly centrifuged for 1 min at 1000 rpm and incubate at room temperature for 6 h. To stop the reaction 5 μl STOP buffer were added and plates centrifuge again 1 min at 1000 rpm. Fluorescence was quantified in the Thermo Scientific Fluoroskan Ascent or the PerkinElmer EnVision with excitation wavelength 485 nm and emission wavelength 538 nm.
# For analysis a best-fit curve is fitted by a minimum sum of squares method. From this an IC50 value and Hill coefficient was obtained. High control (no inhibitor) and low control (saturating concentrations of standard inhibitor) were used to define the minimum and maximum values.
# hOGA = molecular target: T2, hOGA (Homo sapiens, UniProt O60502); test: OGA cellular assay (ICC detection of O-GlcNAcylated proteins in HEK293 cells inducible for P301L mutant human Tau); format: cell-based; set-up: Emax: dose or concentration left out as unconfirmed; details: for Emax: HEK293, read-out: Cellular Emax (%); for pEC50: Cellular hOGA, pEC50, Table 5
# T2 construct: endogenous in cells; host or cells: HEK293 cells inducible for P301L mutant human Tau (isoform 2N4R)
# T2 sequence (O60502 1-916): T1 sequence (O60502 1-916)
# Method: HEK293 cells inducible for P301L mutant human Tau (isoform 2N4R) were established at Janssen. Thiamet-G was used for both plate validation (high control) and as reference compound (reference EC50 assay validation). OGA inhibition is evaluated through the immunocytochemical (ICC) detection of O-GlcNAcylated proteins by the use of a monoclonal antibody (CTD110.6; Cell Signaling, #9875) detecting O-GlcNAcylated residues as previously described (Dorfmueller et al. 2010 Chemistry & biology, 17:1250). Inhibition of OGA will result in an increase of O-GlcNAcylated protein levels resulting in an increased signal in the experiment. Cell nuclei are stained with Hoechst to give a cell culture quality control and a rough estimate of immediate compounds toxicity, if any. ICC pictures are imaged with a Perkin Elmer Opera Phenix plate microscope and quantified with the provided software Perkin Elmer Harmony 4.1.
# Cells were propagated in DMEM high Glucose (Sigma, #D5796) following standard procedures. 2 days before the cell assay cells are split, counted and seeded in Poly-D-Lysine (PDL) coated 96-wells (Greiner, #655946) plate at a cell density of 12,000 cells per cm^2 (4,000 cells per well) in 100 μl of Assay Medium (Low Glucose medium is used to reduce basal levels of GlcNAcylation) (Park et al. 2014 The Journal of biological chemistry 289:13519). At the day of compound test medium from assay plates was removed and replenished with 90 μl of fresh Assay Medium. 10 μl of compounds at a 10 fold final concentration were added to the wells. Plates were centrifuged shortly before incubation in the cell incubator for 6 hours. DMSO concentration was set to 0.2%. Medium is discarded by applying vacuum. For staining of cells medium was removed and cells washed once with 100 μl D-PBS (Sigma, #D8537). From next step onwards unless other stated assay volume was always 50 μl and incubation was performed without agitation and at room temperature. Cells were fixed in 50 μl of a 4% paraformaldehyde (PFA, Alpha aesar, #043368) PBS solution for 15 minutes at room temperature. […] Before analysis samples were washed 2 times manually for 5 minutes in ICC base buffer.
# Imaging is performed using Perkin Elmer Phenix Opera using a water 20× objective and recording 9 fields per well. Intensity readout at 488 nm is used as a measure of O-GlcNAcylation level of total proteins in wells. To assess potential toxicity of compounds nuclei were counted using the Hoechst staining. IC50-values are calculated using parametric non-linear regression model fitting. As a maximum inhibition Thiamet Gat a 200 uM concentration is present on each plate. In addition, a concentration response of Thiamet G is calculated on each plate.
# [2] = Table 5, HEK293 P301L Tau cells, 6 hours incubation, O-GlcNAcylation readout
# [3] = HEK293 P301L Tau cells, 6 hours incubation, O-GlcNAcylation readout
# [4] = second table, averaged values over several runs, obtained after recalibration of the equipment
SMILES,Enzymatic hOGA; pIC50 [1],Emax [1] [%],melting point [°C],Emax (hOGA) [%],Cellular hOGA; pEC50 (hOGA; [2]),pIC50 [1],pEC50 (hOGA; [3]),Cellular hOGA; pEC50 (hOGA; [4])
Cc1cc(C(F)(F)F)cc(C)c1Nc1nccc2c1ncn2CC(=O)N(C)CC(F)(F)F [Compound 77],7.23,103,228.3,67,6.37,,,
Cc1cc(C(F)(F)F)cc(Cl)c1Nc1nccc2c1ncn2CC(=O)N(C)C [Compound 15],,98,214.14,64,,7.85,6.69,
Cc1cc(C(F)(F)F)cc(C(C)C)c1Nc1nccc2c1ncn2CC(=O)N(C)C [Compound 12],,101,234.4,88,,7.97,7.33,
Cc1nn(-c2cccc(C#N)c2)c(C)c1Nc1nccc2c1ncn2CC(=O)N(C)C [Compound 33],,97,239.9,63,,7.69,6.32,
"Cc1cc(C(F)(F)F)cc(C)c1Nc1nccc2c1ncn2Cc1ccon1 [Compound 59, N-(2,6-dimethyl-4-(trifluoromethyl)phenyl)-1-(isoxazole-3-ylmethyl)-1H-imidazo[4,5-c]pyridine-4-amine]",,101,154.7,72,,8.04,,
Cc1cc(Cl)cc(C)c1Nc1nccc2c1ncn2CC(=O)N(C)C [Compound 11],,99,209.8,62,,8.00,6.68,
Cc1cc(C(F)(F)F)cc(C)c1Nc1nccc2c1ncn2C(C)(C)C(=O)N(C)C [Compound 71],<5,6,260.1,27,<6,,,<6
Cc1ccnc(C(C)C)c1Nc1nccc2c1ncn2CC(=O)N(C)C [Compound 14],,100,223.3,75,,7.85,6.37,
Cc1cc(C(F)(F)F)cc(C)c1Nc1nccc2c1ncn2C(C)C(=O)N(C)C (stereo not drawn) [Compound 72],6.26,92,199.9,2,<6,,,<6
"Cc1cc(C(F)(F)F)cc(C)c1Nc1nccc2c1ncn2CC(N)=O [Compound 5, 2-[4-[2,6-Dimethyl-4-(trifluoromethyl)anilino]imidazo[4,5-c]pyridin-1-yl]acetamide]",,91,266.8,67,,6.92,6.35,
Cc1cc(C(F)(F)F)cc(C)c1Nc1ncc(C2CC2)c2c1ncn2CC(=O)N(C)C [Compound 75],6.28,97,246.7,22,<6,,,
Cc1c(-c2cccc(F)c2)nn(C)c1Nc1nccc2c1ncn2CC(=O)N(C)C [Compound 40],,102,230,27,,6.98,< 6.00,
Cc1cc(C(F)(F)F)cc(C)c1Nc1nccc2c1ncn2CCC(=O)N(C)C [Compound 70],<5,7,194.9,7,<6,,,<6
COCCn1cnc2c(Nc3c(C)cc(C(F)(F)F)cc3C)nccc21 [Compound 74],5.64,83,161.5,6,<6,,,<6
Cc1cc(C#N)cc(C)c1Nc1nccc2c1ncn2CC(=O)N(C)C [Compound 46],,92,263.4,69,,7.87,6.33,
Cc1cc(C(F)(F)F)cc(C)c1Nc1nccc2c1ncn2CC(=O)N1CCCC1 [Compound 49],,95,196.6,57,,7.03,6.19,
Cc1nn(-c2ccc(F)cn2)c(C)c1Nc1nccc2c1ncn2CC(=O)N(C)C [Compound 32],,100,256.6,34,,6.76,< 6.00,
Cc1ccc(C(F)(F)F)c(C)c1Nc1nccc2c1ncn2CC(=O)N(C)C [Compound 18],,99,250,56,,7.79,6.20,
COc1cc(C)c(Nc2nccc3c2ncn3CC(=O)N(C)C)c(C)c1 [Compound 8],,97,230,98,,8.26,7.57,
CC(=O)n1nc(C)c(Nc2nccc3c2ncn3CC(=O)N(C)C)c1C [Compound 37],,2,175.4,8,,< 5.00,< 6.00,
Cc1ccc(-n2nc(C)c(Nc3nccc4c3ncn4CC(=O)N(C)C)c2C)cc1 [Compound 45],,94,214.9,94,,7.63,6.26,
